Measurements published in the supplement of paper PMC11451515.

System: SEM cells
Assay: cell viability relative to DMSO control; higher = less cytotoxic
Conditions: 48 h
In short: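 Viability values are per-plate percentages of DMSO wells, with background from cell-free wells. Library compounds in DMSO were pin-dosed, in an 11-point threefold series from 47 μM to 0.79 nM, onto NOMO1 or SEM (500 cells/well) or P12-Ichikawa (1000 cells/well) leukemia cells in 1536-well plates (5 μl). Those cells had been adapted for at least four passages in each medium, and CellTiter-Glo One luminescence was read after 48 h at 37°C.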

[1] = HPLM + 10% dialyzed FBS, 0.000781 µM
[2] = HPLM + 10% dialyzed FBS, 0.00234 µM
[3] = HPLM + 10% dialyzed FBS, 0.00702 µM
[4] = HPLM + 10% dialyzed FBS, 0.0211 µM
[5] = HPLM + 10% dialyzed FBS, 0.0632 µM
[6] = HPLM + 10% dialyzed FBS, 0.19 µM
[7] = HPLM + 10% dialyzed FBS, 0.569 µM
[8] = HPLM + 10% dialyzed FBS, 1.71 µM
[9] = HPLM + 10% dialyzed FBS, 5.12 µM
[10] = HPLM + 10% dialyzed FBS, 15.4 µM
[11] = HPLM + 10% dialyzed FBS, 46.1 µM
[12] = RPMI 5 mM glucose + 10% FBS, 0.000781 µM
[13] = RPMI 5 mM glucose + 10% FBS, 0.00234 µM
[14] = RPMI 5 mM glucose + 10% FBS, 0.00702 µM
[15] = RPMI 5 mM glucose + 10% FBS, 0.0211 µM
[16] = RPMI 5 mM glucose + 10% FBS, 0.0632 µM
[17] = RPMI 5 mM glucose + 10% FBS, 0.19 µM
[18] = RPMI 5 mM glucose + 10% FBS, 0.569 µM
[19] = RPMI 5 mM glucose + 10% FBS, 1.71 µM
[20] = RPMI 5 mM glucose + 10% FBS, 5.12 µM
[21] = RPMI 5 mM glucose + 10% FBS, 15.4 µM
[22] = RPMI 5 mM glucose + 10% FBS, 46.1 µM
[23] = RPMI 5 mM glucose + 10% dialyzed FBS, 0.000781 µM
[24] = RPMI 5 mM glucose + 10% dialyzed FBS, 0.00234 µM
[25] = RPMI 5 mM glucose + 10% dialyzed FBS, 0.00702 µM
[26] = RPMI 5 mM glucose + 10% dialyzed FBS, 0.0211 µM
[27] = RPMI 5 mM glucose + 10% dialyzed FBS, 0.0632 µM
[28] = RPMI 5 mM glucose + 10% dialyzed FBS, 0.19 µM
[29] = RPMI 5 mM glucose + 10% dialyzed FBS, 0.569 µM
[30] = RPMI 5 mM glucose + 10% dialyzed FBS, 1.71 µM
[31] = RPMI 5 mM glucose + 10% dialyzed FBS, 5.12 µM
[32] = RPMI 5 mM glucose + 10% dialyzed FBS, 15.4 µM
[33] = RPMI 5 mM glucose + 10% dialyzed FBS, 46.1 µM

O=C1c2cccc(O)c2C(=O)c2c(O)cc(CO)cc21
cell viability [1]: 101% | cell viability [2]: 97.7% | cell viability [3]: 107% | cell viability [4]: 119% | cell viability [5]: 111% | cell viability [6]: 34% | cell viability [7]: 110% | cell viability [8]: 105% | cell viability [9]: 102% | cell viability [10]: 97.4% | cell viability [11]: 109% | cell viability [12]: 105% | cell viability [13]: 103% | cell viability [14]: 99.9% | cell viability [15]: 110% | cell viability [16]: 93% | cell viability [17]: 45% | cell viability [18]: 101% | cell viability [19]: 84.2% | cell viability [20]: 92.3% | cell viability [21]: 103% | cell viability [22]: 103% | cell viability [23]: 102% | cell viability [24]: 97.2% | cell viability [25]: 100% | cell viability [26]: 91.7% | cell viability [27]: 91.2% | cell viability [28]: 45.1% | cell viability [29]: 85.9% | cell viability [30]: 86.4% | cell viability [31]: 94.2% | cell viability [32]: 92.6% | cell viability [33]: 85.3%

COc1ccc2cc(-c3[nH]c(-c4ccc([S+](C)[O-])cc4)nc3-c3ccncc3)ccc2c1 (stereo not drawn)
cell viability [1]: 92.4% | cell viability [2]: 104% | cell viability [3]: 105% | cell viability [4]: 109% | cell viability [5]: 109% | cell viability [6]: 114% | cell viability [7]: 121% | cell viability [8]: 107% | cell viability [9]: 126% | cell viability [10]: 127% | cell viability [11]: 107% | cell viability [12]: 76.8% | cell viability [13]: 105% | cell viability [14]: 96.3% | cell viability [15]: 85.9% | cell viability [16]: 95% | cell viability [17]: 101% | cell viability [18]: 101% | cell viability [19]: 106% | cell viability [20]: 110% | cell viability [21]: 111% | cell viability [22]: 71.9% | cell viability [23]: 88.6% | cell viability [24]: 109% | cell viability [25]: 102% | cell viability [26]: 105% | cell viability [27]: 101% | cell viability [28]: 116% | cell viability [29]: 127% | cell viability [30]: 109% | cell viability [31]: 111% | cell viability [32]: 116% | cell viability [33]: 88.9%

COC(=O)N[C@H](C(=O)N[C@@H](Cc1ccccc1)[C@@H](O)CN(Cc1ccc(-c2ccccn2)cc1)NC(=O)[C@@H](NC(=O)OC)C(C)(C)C)C(C)(C)C
cell viability [12]: 103% | cell viability [13]: 123% | cell viability [14]: 152% | cell viability [15]: 111% | cell viability [16]: 136% | cell viability [17]: 110% | cell viability [18]: 122% | cell viability [19]: 110% | cell viability [20]: 128% | cell viability [21]: 116% | cell viability [22]: 96.7% | cell viability [23]: 101% | cell viability [24]: 118% | cell viability [25]: 136% | cell viability [26]: 123% | cell viability [27]: 132% | cell viability [28]: 131% | cell viability [29]: 110% | cell viability [30]: 113% | cell viability [31]: 122% | cell viability [32]: 123% | cell viability [33]: 79.9%

c1ccc2c(-c3cnn4cc(-c5ccc(N6CCNCC6)cc5)cnc34)ccnc2c1
cell viability [1]: 75.6% | cell viability [2]: 78.2% | cell viability [3]: 121% | cell viability [4]: 125% | cell viability [5]: 139% | cell viability [6]: 130% | cell viability [7]: 122% | cell viability [8]: 100% | cell viability [9]: 2.9% | cell viability [10]: 1.26% | cell viability [11]: 2.65% | cell viability [12]: 84% | cell viability [13]: 71.6% | cell viability [14]: 140% | cell viability [15]: 138% | cell viability [16]: 153% | cell viability [17]: 122% | cell viability [18]: 121% | cell viability [19]: 97.1% | cell viability [20]: 61% | cell viability [21]: 7.66% | cell viability [22]: 3.32% | cell viability [23]: 69% | cell viability [24]: 72.2% | cell viability [25]: 118% | cell viability [26]: 147% | cell viability [27]: 151% | cell viability [28]: 142% | cell viability [29]: 114% | cell viability [30]: 89.2% | cell viability [31]: 66.7% | cell viability [32]: 45.9% | cell viability [33]: 3.66%

CN(C(=O)c1ccc(F)cc1C(F)(F)F)C1CCN(c2nnc(-c3ccnn3C)c3ccccc23)CC1
cell viability [1]: 50.4% | cell viability [2]: 67.5% | cell viability [3]: 60.6% | cell viability [4]: 62.4% | cell viability [5]: 79.4% | cell viability [6]: 85.1% | cell viability [7]: 69.4% | cell viability [8]: 78.6% | cell viability [9]: 79% | cell viability [10]: 80.6% | cell viability [11]: 49.2% | cell viability [12]: 69.2% | cell viability [13]: 74.8% | cell viability [14]: 71% | cell viability [15]: 85.5% | cell viability [16]: 83.3% | cell viability [17]: 77.6% | cell viability [18]: 91% | cell viability [19]: 86.2% | cell viability [20]: 74.1% | cell viability [21]: 86.8% | cell viability [22]: 59.8% | cell viability [23]: 56.3% | cell viability [24]: 61.4% | cell viability [25]: 61.9% | cell viability [26]: 70.8% | cell viability [27]: 66.7% | cell viability [28]: 80.4% | cell viability [29]: 65% | cell viability [30]: 86.1% | cell viability [31]: 79.2% | cell viability [32]: 83.3% | cell viability [33]: 41%

c1ccc2c(Oc3nc(Nc4ccc(N5CCOCC5)cc4)c4ncn(C5CCCCC5)c4n3)cccc2c1
cell viability [1]: 91% | cell viability [2]: 96.7% | cell viability [3]: 101% | cell viability [4]: 112% | cell viability [5]: 120% | cell viability [6]: 116% | cell viability [7]: 131% | cell viability [8]: 120% | cell viability [9]: 99.7% | cell viability [10]: 100% | cell viability [11]: 67.1% | cell viability [12]: 101% | cell viability [13]: 122% | cell viability [14]: 138% | cell viability [15]: 133% | cell viability [16]: 133% | cell viability [17]: 136% | cell viability [18]: 125% | cell viability [19]: 139% | cell viability [20]: 108% | cell viability [21]: 105% | cell viability [22]: 67% | cell viability [23]: 108% | cell viability [24]: 141% | cell viability [25]: 115% | cell viability [26]: 130% | cell viability [27]: 142% | cell viability [28]: 129% | cell viability [29]: 126% | cell viability [30]: 109% | cell viability [31]: 126% | cell viability [32]: 110% | cell viability [33]: 53.4%

C[C@H]1[C@@H](CC(C[C@H]2O[C@@H]3O[C@]4(C)CC[C@H]5[C@H](C)CC[C@@H]([C@H]2C)[C@@]35OO4)C[S+](=O)([O-])c2ccc(COC(=O)N(C)C)cc2)O[C@@H]2O[C@]3(C)CC[C@H]4[C@H](C)CC[C@@H]1[C@@]24OO3
cell viability [1]: 96.1% | cell viability [2]: 91.3% | cell viability [3]: 97.2% | cell viability [4]: 99.8% | cell viability [5]: 102% | cell viability [6]: 89.3% | cell viability [7]: 72.9% | cell viability [8]: 5.9% | cell viability [9]: 7.11% | cell viability [10]: 6.96% | cell viability [11]: 4.59% | cell viability [12]: 101% | cell viability [13]: 103% | cell viability [14]: 91.3% | cell viability [15]: 115% | cell viability [16]: 106% | cell viability [17]: 108% | cell viability [18]: 23.9% | cell viability [19]: 6.39% | cell viability [20]: 7.58% | cell viability [21]: 7.01% | cell viability [22]: 5.47% | cell viability [23]: 109% | cell viability [24]: 112% | cell viability [25]: 94.1% | cell viability [26]: 105% | cell viability [27]: 107% | cell viability [28]: 104% | cell viability [29]: 27.5% | cell viability [30]: 6.28% | cell viability [31]: 6.52% | cell viability [32]: 6.47% | cell viability [33]: 4.61%

CCOC(=O)c1ccc(C#Cc2ccc3c(c2)C(C)(C)CCS3)nc1
cell viability [1]: 105% | cell viability [2]: 105% | cell viability [3]: 109% | cell viability [4]: 116% | cell viability [5]: 111% | cell viability [6]: 75.4% | cell viability [7]: 114% | cell viability [8]: 118% | cell viability [9]: 108% | cell viability [10]: 114% | cell viability [11]: 102% | cell viability [12]: 98% | cell viability [13]: 121% | cell viability [14]: 122% | cell viability [15]: 126% | cell viability [16]: 118% | cell viability [17]: 75.6% | cell viability [18]: 121% | cell viability [19]: 122% | cell viability [20]: 116% | cell viability [21]: 108% | cell viability [22]: 113% | cell viability [23]: 89.2% | cell viability [24]: 100% | cell viability [25]: 101% | cell viability [26]: 98.1% | cell viability [27]: 106% | cell viability [28]: 66.4% | cell viability [29]: 99.5% | cell viability [30]: 94.8% | cell viability [31]: 90% | cell viability [32]: 89.3% | cell viability [33]: 93.5%
